The source of these data is US6562782B1, “Oligocycloalkanoid compounds and methods of use” (University of Rochester, priority 1999, dated 2003).

The nature of the assay: UV titration of ter-cyclopentane tetra-amino acid derivatives with lipid A. The format is binding, Salmonella minnesota. To be noted: for binding to lipid A in UV titration, in words: aqueous solution, concentrations below the cmc of lipid A / >20 micromolar in lipid A.

Protocol: A 600 microliter, 0.9 μM solution of the ter-cyclopentane tetra-amino acid derivative in water (pH=5.0) or phosphate-buffered saline (PBS, pH=7.4) was allowed to equilibrate in a 1.0-ml masked wall UV cell at ambient temperature (22° C.), in a Shimadzu 1600-PC UV spectrophotometer. […] After each addition, the solution was allowed to equilibrate for a minimum of 5 minutes, then scanned for absorbance 550-220 nm.

With `NC(Cc1c[nH]c2ccccc12)C(=O)OCC1CC(COC(=O)C(N)Cc2c[nH]c3ccccc23)C(C2CCC(C3C(COC(=O)C(N)Cc4c[nH]c5ccccc45)CC(COC(=O)C(N)Cc4c[nH]c5ccccc45)C3COC(=O)c3ccccc3)C2)C1COC(=O)c1ccccc1` (mixture of isomers) [Compound 7.3, tetra-tryptophaninate ter-cyclopentane], the “lipid A binding affinity compared with polymyxins” value was “greater than the binding affinity of polymyxins”.

Turning to `COC(=O)[C@@H](N)Cc1c[nH]c2ccccc12` [Compound H2N-Trp-OCH3, tryptophan methyl-ester, reference compound], the “binding to lipid A in UV titration, in words” value was “not saturatable at the concentrations tested”. The same measure, in the same setting: as for `NCC(=O)OCC1CC(COC(=O)CN)C(C2CCC(C3C(COC(=O)CN)CC(COC(=O)CN)C3COC(=O)c3ccccc3)C2)C1COC(=O)c1ccccc1` (stereo not shown) [Compound 7.1, tetra-glycinate ter-cyclopentane], the entry is “saturation point for binding of lipid A to 7.1 was not reached”. Still for that read-out and setting: as for “tetra-phenylalaninate ter-cyclopentane [Compound 7.2]”, the entry is “reasonable affinity”.
